Laboratory results: patent US20220120736A1, “METHODS AND ASSAYS FOR MODULATING GENE TRANSCRIPTION BY MODULATING CONDENSATES” (Whitehead Institute for Biomedical Research, priority 2018, published 2022)

Legend:
Format in all cases: cell-based
[1] = molecular target: T1, OCT4 (FKBP-tagged) (Mus musculus, UniProt P20263+Q8C7D2); assay: RNA-seq after OCT4 degradation in OCT4-FKBP ESCs; conditions: dTag 24 hours versus DMSO
T1 construct: an ESC line bearing endogenous knock-in of DNA encoding the FKBP protein fused to OCT4; HA (C); endogenous in cells; host or cells: V6.5 mouse ES cells (Med1-mEGFP background), homozygous Oct4-FKBP knock-in
T1 sequence (P20263 with tags, fused parts or gaps): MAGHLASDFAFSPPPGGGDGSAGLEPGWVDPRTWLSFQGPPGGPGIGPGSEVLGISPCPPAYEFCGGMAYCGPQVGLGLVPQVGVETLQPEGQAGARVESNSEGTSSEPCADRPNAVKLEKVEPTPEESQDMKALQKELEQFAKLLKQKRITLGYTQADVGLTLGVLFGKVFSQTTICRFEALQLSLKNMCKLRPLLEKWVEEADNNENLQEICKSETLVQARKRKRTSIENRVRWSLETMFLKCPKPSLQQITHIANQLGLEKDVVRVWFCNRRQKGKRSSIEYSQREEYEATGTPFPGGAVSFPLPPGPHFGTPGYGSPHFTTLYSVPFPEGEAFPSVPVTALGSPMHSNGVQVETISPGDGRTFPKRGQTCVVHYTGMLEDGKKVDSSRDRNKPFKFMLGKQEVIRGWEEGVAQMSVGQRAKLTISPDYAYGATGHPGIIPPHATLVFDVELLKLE
T1 sequence (Q8C7D2 whole entry, the tested form may be a part): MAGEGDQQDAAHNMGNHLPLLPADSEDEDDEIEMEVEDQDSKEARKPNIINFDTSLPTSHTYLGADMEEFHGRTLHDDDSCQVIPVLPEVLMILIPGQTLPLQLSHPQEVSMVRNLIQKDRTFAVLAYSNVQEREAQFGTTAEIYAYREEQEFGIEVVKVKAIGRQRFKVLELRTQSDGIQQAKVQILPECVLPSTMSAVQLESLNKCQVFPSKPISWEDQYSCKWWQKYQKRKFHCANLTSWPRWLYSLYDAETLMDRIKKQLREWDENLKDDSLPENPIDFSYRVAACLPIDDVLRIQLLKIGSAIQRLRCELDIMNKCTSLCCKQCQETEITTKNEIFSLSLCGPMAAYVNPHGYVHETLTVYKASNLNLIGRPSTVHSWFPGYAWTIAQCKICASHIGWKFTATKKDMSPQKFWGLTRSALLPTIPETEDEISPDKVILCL
T1 sequence (Q3U1J4 whole entry partner, the tested form may be a part): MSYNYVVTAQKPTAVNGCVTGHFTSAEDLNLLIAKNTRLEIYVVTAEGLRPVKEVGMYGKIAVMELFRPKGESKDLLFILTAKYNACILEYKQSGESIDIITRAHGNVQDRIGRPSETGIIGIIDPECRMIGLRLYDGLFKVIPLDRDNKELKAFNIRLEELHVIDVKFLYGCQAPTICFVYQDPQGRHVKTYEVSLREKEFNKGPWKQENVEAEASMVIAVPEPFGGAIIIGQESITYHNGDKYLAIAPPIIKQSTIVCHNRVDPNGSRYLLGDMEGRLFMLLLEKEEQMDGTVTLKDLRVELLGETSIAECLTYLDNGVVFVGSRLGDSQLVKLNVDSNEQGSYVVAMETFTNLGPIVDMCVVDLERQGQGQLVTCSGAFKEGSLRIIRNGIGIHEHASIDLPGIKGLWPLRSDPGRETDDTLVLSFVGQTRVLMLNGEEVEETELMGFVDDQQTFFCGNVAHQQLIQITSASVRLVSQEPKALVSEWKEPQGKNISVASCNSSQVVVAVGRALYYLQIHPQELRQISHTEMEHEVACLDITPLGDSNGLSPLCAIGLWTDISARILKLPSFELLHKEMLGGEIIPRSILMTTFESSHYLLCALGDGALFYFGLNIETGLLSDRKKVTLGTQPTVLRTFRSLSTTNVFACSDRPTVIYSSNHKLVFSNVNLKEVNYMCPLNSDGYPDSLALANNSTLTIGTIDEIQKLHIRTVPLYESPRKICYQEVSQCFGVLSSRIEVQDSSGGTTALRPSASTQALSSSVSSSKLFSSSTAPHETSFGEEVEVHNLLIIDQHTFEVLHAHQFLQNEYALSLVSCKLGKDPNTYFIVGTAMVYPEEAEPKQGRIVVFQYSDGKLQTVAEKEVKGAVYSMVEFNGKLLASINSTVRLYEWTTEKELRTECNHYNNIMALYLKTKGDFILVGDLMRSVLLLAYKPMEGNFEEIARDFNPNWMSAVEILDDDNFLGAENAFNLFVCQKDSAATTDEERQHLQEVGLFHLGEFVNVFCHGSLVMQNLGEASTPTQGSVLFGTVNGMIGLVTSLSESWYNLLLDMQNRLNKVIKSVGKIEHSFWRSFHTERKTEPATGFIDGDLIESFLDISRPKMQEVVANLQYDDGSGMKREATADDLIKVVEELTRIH
Method: RNA-Seq was performed in the indicated cell line with the indicated treatment, and used to determine expressed genes. RNA was isolated by AllPrep Kit (Qiagen 80204) and stranded polyA selected libraries was prepared using the TruSeq Stranded mRNA Library Prep Kit (Illumina, RS-122-2101) according to manufacturer's protocol and single-end sequenced on a Hi-seq 2500 instrument.
The CRISPR/Cas9 system was used to genetically engineer ESC lines. Target-specific oligonucleotides were cloned into a plasmid carrying a codon-optimized version of Cas9 with GFP (gift from R. Jaenisch). The sequences of the DNA targeted (the protospacer adjacent motif is underlined) are listed in the same table. […]
For analysis, raw reads were aligned to the mm9 revision of the mouse reference genome using hisat2 with default parameters. Gene name-level read count quantification was performed with htseq-count with parameters -I gene_id -stranded=reverse -f bam -m intersection-strict and a GTF containing transcript positions from Refseq, downloaded 6/6/18. Normalized counts, normalized fold-changes, and differential expression p values were determined using DEseq2 using the standard workflow and both replicates of each condition.

[2] = tested on: mutant (Y537S) and mutant (D538G) ER activation domain; assay: Lac array assay in U2OS cells, mutant ER fusions; conditions: Y537S and D538G mutants, presence versus absence of estrogen
Excerpt: A Lac binding domain-CFP-ER activation domain (ER) fusion protein, Lac binding domain-CFP-mutant (Y537S) ER activation domain fusion protein, or Lac binding domain-CFP-ER mutant (D538G) activation domain fusion protein was introduced into U2OS cells bearing the Lac operon array. […] Same experimental conditions as FIG. 39.
Constructs were assembled by NEB HIFI cloning in pSV2 mammalian expression vector containing an SV40 promoter driving expression of a CFP-LacI fusion protein. The activation domains and mutant activation domains of […] were fused by the c-terminus to this recombinant protein, joined by the linker sequence […] (SEQ ID NO: 17). U2OS-268 cells containing a stably integrated array of ˜51,000 Lac-repressor binding sites (a gift of the Spector laboratory) were transfected using lipofectamine 3000 (Thermofisher L3000015). 24 hours after transfection, cells were plated on fibronectin-coated glass coverslips. After 24 hours on glass coverslips, cells were fixed for immunofluorescence with a MED1 antibody (Table S4) as described above and imaged, by spinning disk confocal microscopy.

[3] = tested on: MYC oncogene; assay: Confocal microscopy of MED1 condensates at MYC; conditions: presence versus absence of estrogen
[4] = tested on: ER LBD-MED1 condensate in U2OS-Lac cells; assay: LAC binding assay (ER LBD tethered to Lac array); conditions: for MED1-containing condensate formation at tethered ER LBD: U2OS-Lac cells, 45 minutes, 10 nM B-Estradiol or 1 uM 4-Hydroxytamoxifen
Method: Constructs were assembled by NEB HIFI cloning in pSV2 mammalian expression vector containing an SV40 promoter driving expression of a CFP-LacI fusion protein. The activation domains and mutant activation domains of ESR1 were fused by the c-terminus to this recombinant protein, joined by the linker sequence […] (SEQ ID NO: 14). For some experiments a variant plasmid with mCherry in place of CFP was used. […] Cells were then plated on fibronectin-coated glass coverslips and transfected using lipofectamine 3000 (Thermofisher L3000015). For high MED1 conditions, a construct with a mammalian expression vector containing a PGK promoter driving the expression of MED1 fused to GFP was co-transfected. […] Following treatment, cells were fixed and immunofluorescence was performed with a MED1 antibody as described above.
For analysis of Lac array data, custom Python scripts were written to process and analyze image data gathered in Lac and tagged-protein channels. Nuclear stains were blurred with a Gaussian filter (sigma=2.0) and clustered into 2 clusters (nuclei and background) by K-means. The nuclei were then labeled with the python scikit-image package using the measure.label function. To segment Lac spots, the Lac image channel was blurred with a Gaussian filter (sigma=2.0), and an intensity threshold (mean+1.5*std) was applied to the image. Segmented regions (also determined by measure.label) were then filtered based on minimum area (150 pixels), maximum area (2000 pixels), circularity (c=4pi*area/perimeter^2; 0.8), and presence in a nucleus as defined by the mask described above. A norm enrichment ratio was calculated by determining the mean intensity of the tagged-protein in the segmented Lac spot and dividing it by the mean intensity of the tagged-protein present in the same whole nucleus.

expression of SE-driven genes [1] | reduction in Nanog mRNA levels [1] [%] | Compound | condensate formation, CFP signal of fusion protein [2] | condensate formation, mediator immunofluorescence [2] | MED1 condensate formation at the MYC oncogene [3] | MED1-containing condensate formation at tethered ER LBD [4] | MED1 condensate formation at tethered ER LBD, dependence on estrogen ([4]; normal ER) | MED1 condensate generation by tethered ER LBD in the presence of tamoxifen ([4]; MED1 overexpressed) | MED1 condensate generation by tethered ER LBD in the presence of tamoxifen ([4]; normal MED1 levels)
concomitantly decreased | 60 | CC[C@H](C(=O)N1CCCC[C@H]1C(=O)O[C@H](CCc1ccc(OC)c(OC)c1)c1ccccc1OCC(=O)NCCCCCCCCNc1ccc2c(c1)C(=O)N(C1CCC(=O)NC1=O)C2=O)c1cc(OC)c(OC)c(OC)c1 (stereo partly shown) [dTag] |  |  |  |  |  |  | 
 |  | C[C@]12CC[C@@H]3c4ccc(O)cc4CC[C@H]3[C@@H]1CC[C@@H]2O [estrogen, B-Estradiol] | did not significantly affect condensate formation | did not significantly affect condensate formation | stimulates MED1 condensate formation at the MYC oncogene | generated a MED1-containing condensate | only in the presence of estrogen |  | 
 |  | CC/C(=C(\c1ccccc1)c1ccc(OCCN(C)C)cc1)c1ccccc1 [tamoxifen] |  |  |  | prevented |  | generated a MED1 condensate | did not generate a MED1 condensate
